{
  "source": "ChEMBL document CHEMBL1201862",
  "about": "“PubChem BioAssay data set” (2004)",
  "key": {"[1]": {"assay": "loss of viability in HepG2 cells – cell-based, CellTiter-Glo, cherry-picked, cytotoxicity control for Shn3 inhibitor project, dose response (AID 624134)", "type": "functional"}, "cells [2]": {"assay": "cells", "type": "functional, cell-based"}, "[3]": {"molecular_target": "T1, Histone-lysine N-methyltransferase NSD2 (Homo sapiens, UniProt O96028)", "T1 sequence (O96028 whole entry)": "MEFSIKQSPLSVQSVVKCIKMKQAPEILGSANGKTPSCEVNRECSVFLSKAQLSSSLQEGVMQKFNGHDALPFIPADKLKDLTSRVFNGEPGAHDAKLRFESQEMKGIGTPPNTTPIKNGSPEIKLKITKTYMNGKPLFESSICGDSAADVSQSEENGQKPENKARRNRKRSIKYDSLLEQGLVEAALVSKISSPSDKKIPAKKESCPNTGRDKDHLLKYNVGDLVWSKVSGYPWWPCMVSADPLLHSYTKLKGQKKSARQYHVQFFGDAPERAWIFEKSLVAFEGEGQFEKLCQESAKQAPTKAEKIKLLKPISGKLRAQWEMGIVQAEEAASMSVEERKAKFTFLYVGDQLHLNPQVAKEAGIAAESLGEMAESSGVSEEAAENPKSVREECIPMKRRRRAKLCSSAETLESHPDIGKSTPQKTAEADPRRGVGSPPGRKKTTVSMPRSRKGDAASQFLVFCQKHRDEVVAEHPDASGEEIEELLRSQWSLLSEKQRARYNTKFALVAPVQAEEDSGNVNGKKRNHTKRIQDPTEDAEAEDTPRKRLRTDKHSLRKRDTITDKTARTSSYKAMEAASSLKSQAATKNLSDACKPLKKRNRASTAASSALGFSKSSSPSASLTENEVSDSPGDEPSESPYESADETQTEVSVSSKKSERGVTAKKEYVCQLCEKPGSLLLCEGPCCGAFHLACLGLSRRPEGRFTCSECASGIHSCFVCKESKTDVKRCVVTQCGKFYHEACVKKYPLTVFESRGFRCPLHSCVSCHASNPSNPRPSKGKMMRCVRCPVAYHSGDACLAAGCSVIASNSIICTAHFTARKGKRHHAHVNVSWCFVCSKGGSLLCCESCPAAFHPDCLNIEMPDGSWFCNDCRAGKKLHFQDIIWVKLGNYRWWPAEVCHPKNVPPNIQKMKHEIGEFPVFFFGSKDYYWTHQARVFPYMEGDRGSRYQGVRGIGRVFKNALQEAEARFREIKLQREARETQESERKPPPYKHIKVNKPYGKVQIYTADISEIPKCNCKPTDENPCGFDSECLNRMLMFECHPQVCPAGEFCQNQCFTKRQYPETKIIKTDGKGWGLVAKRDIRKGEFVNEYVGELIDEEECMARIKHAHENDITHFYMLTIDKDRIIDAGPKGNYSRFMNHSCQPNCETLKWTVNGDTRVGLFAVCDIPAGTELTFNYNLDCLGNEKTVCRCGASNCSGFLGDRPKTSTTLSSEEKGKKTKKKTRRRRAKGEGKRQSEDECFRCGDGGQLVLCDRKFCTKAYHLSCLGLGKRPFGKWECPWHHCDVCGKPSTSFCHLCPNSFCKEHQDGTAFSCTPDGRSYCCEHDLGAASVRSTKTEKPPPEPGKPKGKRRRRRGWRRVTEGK", "type": "biochemical"}, "[4]": {"molecular_target": "T2, Zinc finger protein mex-5 (Caenorhabditis elegans, UniProt Q9XUB2)", "T2 sequence (Q9XUB2 whole entry)": "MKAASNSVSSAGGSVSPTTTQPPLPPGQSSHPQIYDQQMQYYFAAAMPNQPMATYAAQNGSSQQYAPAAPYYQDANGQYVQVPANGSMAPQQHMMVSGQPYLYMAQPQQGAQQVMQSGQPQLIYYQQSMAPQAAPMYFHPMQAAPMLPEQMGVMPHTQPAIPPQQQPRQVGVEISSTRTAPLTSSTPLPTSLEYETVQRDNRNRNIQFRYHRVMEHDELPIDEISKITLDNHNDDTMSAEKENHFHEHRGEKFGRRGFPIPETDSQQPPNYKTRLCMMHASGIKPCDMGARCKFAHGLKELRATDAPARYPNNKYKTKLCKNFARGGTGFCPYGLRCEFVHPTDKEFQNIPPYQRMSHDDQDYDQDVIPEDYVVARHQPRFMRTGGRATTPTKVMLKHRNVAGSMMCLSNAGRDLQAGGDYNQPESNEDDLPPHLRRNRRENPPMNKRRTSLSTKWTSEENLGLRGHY", "assay": "potency of MEX-5 RNA-binding blockers – biochemical, C. elegans, fluorescence polarization, dose response (AID 1960)"}, "[5]": {"assay": "reduction of Shn3 3'UTR-driven luciferase in osteoblasts – cell-based, Clone20 osteoblasts, firefly luciferase, cherry-picked, dose response (AID 624132)", "type": "functional"}, "Albumin": {"molecular_target": "Albumin (Bos taurus, UniProt P02769)", "sequence (P02769 whole entry)": "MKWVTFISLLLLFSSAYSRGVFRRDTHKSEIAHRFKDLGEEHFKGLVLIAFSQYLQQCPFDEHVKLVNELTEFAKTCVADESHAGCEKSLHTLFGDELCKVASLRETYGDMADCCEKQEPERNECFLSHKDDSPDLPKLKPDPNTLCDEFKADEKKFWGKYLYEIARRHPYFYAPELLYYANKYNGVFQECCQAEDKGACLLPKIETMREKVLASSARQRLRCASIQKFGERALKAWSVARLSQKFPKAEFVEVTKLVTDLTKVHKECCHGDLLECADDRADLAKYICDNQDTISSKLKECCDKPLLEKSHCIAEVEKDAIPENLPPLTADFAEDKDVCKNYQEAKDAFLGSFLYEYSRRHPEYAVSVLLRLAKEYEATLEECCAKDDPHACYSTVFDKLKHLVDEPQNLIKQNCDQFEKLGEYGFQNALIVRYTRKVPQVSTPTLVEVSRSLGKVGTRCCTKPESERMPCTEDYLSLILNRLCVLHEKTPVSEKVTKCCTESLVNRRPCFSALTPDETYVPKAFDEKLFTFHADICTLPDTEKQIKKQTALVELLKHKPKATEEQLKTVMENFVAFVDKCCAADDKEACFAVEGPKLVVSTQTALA", "assay": "Counterscreen for inhibitors of T-cell receptor (TCR)-CD3 interaction: Fluorescence-based biochemical high throughput dose response assay to identify inhibitors of T-cell receptor (TCR)-CD3 interaction using a TAMRA-labeled BSA probe.", "type": "functional"}, "[6]": {"assay": "non-specific 3'UTR reporter inhibition in Clone20-Shn3RL – cell-based, Renilla luciferase, cherry-picked, counter-screen for Shn3 inhibitor project, dose response (AID 624133)", "type": "functional"}, "[7]": {"molecular_target": "T3, RNA-binding protein pos-1 (Caenorhabditis elegans, UniProt G5EF15)", "T3 sequence (G5EF15 whole entry)": "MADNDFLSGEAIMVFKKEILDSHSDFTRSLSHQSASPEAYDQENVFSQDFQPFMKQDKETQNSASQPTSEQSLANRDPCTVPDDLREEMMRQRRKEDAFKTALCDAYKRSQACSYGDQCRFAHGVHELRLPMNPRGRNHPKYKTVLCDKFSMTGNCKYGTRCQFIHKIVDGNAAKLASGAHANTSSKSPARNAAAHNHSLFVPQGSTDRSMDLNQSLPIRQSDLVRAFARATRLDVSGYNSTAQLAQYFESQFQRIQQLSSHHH", "assay": "disruptors of C. elegans POS-1 RNA interaction – biochemical, fluorescence polarization, dose response (AID 1964);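 also: purified POS-1 fused to maltose binding protein made in E. coli; potency of compounds blocking POS-1 binding to fluorescent RNA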"}, "Caspase-6": {"molecular_target": "T4, Caspase-6 (Homo sapiens, UniProt P55212)", "T4 sequence (P55212 whole entry)": "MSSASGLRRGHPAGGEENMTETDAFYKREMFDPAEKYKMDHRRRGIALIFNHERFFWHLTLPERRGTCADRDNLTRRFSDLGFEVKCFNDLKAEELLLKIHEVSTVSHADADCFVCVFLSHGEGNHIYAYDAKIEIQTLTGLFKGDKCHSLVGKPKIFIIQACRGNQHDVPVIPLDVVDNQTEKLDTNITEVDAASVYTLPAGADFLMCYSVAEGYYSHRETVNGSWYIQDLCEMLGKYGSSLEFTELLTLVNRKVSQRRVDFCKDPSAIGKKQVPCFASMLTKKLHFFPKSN", "assay": "inhibition of CASP6 peptide cleavage – biochemical, VEID-R110 fluorescence, cherry-pick, dose response (AID 720632)"}, "cells [8]": {"assay": "cells", "type": "functional, cell-based", "remark": "listed apart in the source"}, "[9]": {"molecular_target": "FAD-linked sulfhydryl oxidase ALR (Homo sapiens, UniProt P55789)", "sequence (P55789 whole entry)": "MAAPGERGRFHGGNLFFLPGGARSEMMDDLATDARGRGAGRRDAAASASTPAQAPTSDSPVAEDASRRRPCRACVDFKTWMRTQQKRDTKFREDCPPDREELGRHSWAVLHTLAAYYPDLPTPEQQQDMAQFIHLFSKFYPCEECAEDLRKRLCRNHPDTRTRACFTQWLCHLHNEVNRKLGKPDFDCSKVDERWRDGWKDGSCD", "assay": "ALR-catalysed DTT oxidation blockers – biochemical, H2O2 detection, luminescence, cherry-pick, dose response (AID 493248)"}, "[10]": {"assay": "HEK293 Cytotoxicity Assay Measured in Cell-Based System Using Plate Reader - 7071-01_Inhibitor_Dose_CherryPick_Activity_Set2.", "type": "functional"}, "HEK293": {"tested_on": "HEK293", "assay": "viability loss in HEK293T cells – cell-based, ATP luminescence, cherry-pick samples, cytotoxicity control, dose response (AID 687005);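 also: cells exposed to compound for 48 hours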", "type": "functional", "details": "Homo sapiens"}, "HeLa": {"tested_on": "HeLa", "assay": "viability loss in HeLa cells – cell-based, ATP luminescence, cherry-pick samples, cytotoxicity control, dose response (AID 687004)", "type": "functional", "details": "Homo sapiens"}, "[11]": {"assay": "HGIII-sPLA2 enzyme inhibition potency – biochemical, QFRET, IC50, dose response (AID 743457);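 also: green fluorescence rise as the enzyme cleaves BODIPY PC-A2 in liposomes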"}, "Protein Wnt-3a": {"molecular_target": "Protein Wnt-3a (Mus musculus, UniProt P27467)", "sequence (P27467 whole entry)": "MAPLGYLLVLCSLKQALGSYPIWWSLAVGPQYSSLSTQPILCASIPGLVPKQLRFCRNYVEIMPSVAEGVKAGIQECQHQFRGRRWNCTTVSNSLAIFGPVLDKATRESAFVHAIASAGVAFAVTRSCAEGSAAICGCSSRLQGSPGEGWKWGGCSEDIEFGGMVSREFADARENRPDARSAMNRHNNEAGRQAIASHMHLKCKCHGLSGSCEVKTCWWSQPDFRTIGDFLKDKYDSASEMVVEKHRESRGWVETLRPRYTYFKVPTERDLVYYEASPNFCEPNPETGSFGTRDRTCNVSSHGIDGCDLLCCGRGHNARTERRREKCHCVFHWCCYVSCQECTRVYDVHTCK", "assay": "SAR analysis of small molecule antagonists of Gli-SUFU in a Wnt3a luminescent reporter assay.", "type": "functional"}},
  "note": "Calls of active or inactive are those of the source.",
  "data": [
    {"smiles": "Cc1ccc2nc(-c3ccc(O)c(O)c3)cn2c1", "values": [
      {"measurement": "AC50", "setting": "[1]", "value": "> 70 µM (inactive)"},
      {"measurement": "EC50", "setting": "cells [2]", "value": "5.03 µM (active)"},
      {"measurement": "AC50", "setting": "[3]", "value": "> 20 µM (inactive)"},
      {"measurement": "EC50", "setting": "[4]", "value": "9.7 µM (active)"},
      {"measurement": "AC50", "setting": "[5]", "value": "4.2 µM (active)"},
      {"measurement": "IC50", "setting": "Albumin", "value": "> 94.1 µM (inactive)"},
      {"measurement": "AC50", "setting": "[6]", "value": "2.47 µM (active)"},
      {"measurement": "EC50", "setting": "[7]", "value": "> 75 µM (not active)"},
      {"measurement": "AC50", "setting": "Caspase-6", "value": "12 µM (active)"},
      {"measurement": "EC50", "setting": "cells [8]", "value": "> 350 µM (not active)"},
      {"measurement": "AC50", "setting": "[9]", "value": "885 nM (active)"}
    ]},
    {"smiles": "C[C@H]1CCCCO[C@H](CN(C)C(=O)Nc2ccc(F)cc2)[C@@H](C)CN([C@@H](C)CO)C(=O)c2cc(NS(=O)(=O)c3ccc(Cl)cc3)ccc2O1", "values": [
      {"measurement": "AC50", "setting": "[10]", "value": "30.6 µM (active)"},
      {"measurement": "AC50", "setting": "HEK293", "value": "30.6 µM (active)"},
      {"measurement": "AC50", "setting": "HeLa", "value": "25.5 µM (active)"}
    ]},
    {"smiles": "CCc1c(-c2nnc(S)n2Cc2ccccc2)csc1C", "values": [
      {"measurement": "IC50", "setting": "[11]", "value": "> 122 µM (inactive)"}
    ]},
    {"smiles": "CCCCNc1cc(NC(=O)c2ccccc2)ncn1", "values": [
      {"measurement": "IC50", "setting": "Protein Wnt-3a", "value": "> 21.8 µM (inactive)"}
    ]}
  ]
}
